Reference: article PMC8956739, “A synthetic lipopeptide targeting top-priority multidrug-resistant Gram-negative pathogens” (Nature Communications, 2022)
“And” between values parts separate entries of the source, which are not always exact repeats. Equal entries are not always repeated.

Legend:
A. baumannii AB5075 [1] = assay: In vitro passaging, emergence of resistance; type: cell-based, Acinetobacter baumannii; settings: for OD600: 8 ug/mL
Experimental: Log-phase cultures (OD600 = 0.5, ~10^8 CFU/mL) of A. baumannii AB5075 were inoculated (1:10, v/v) in 200 μL fresh CaMHB (cation-adjusted Mueller–Hinton broth) containing 2, 8 and 16 μg/mL polymyxin B, colistin, F287, and F365 in a 96-well microplate with 4 biological replicates. The cultures were incubated at 37 °C for 12 h before the next dilution (1:10, v/v) with fresh CaMHB. Successive subculturing was conducted for 7 days.

wild-type HK-2 cells = assay: in vitro; type: cell-based, human; settings: human, wild-type HK-2 cells (kidney proximal tubular), 24 h
Experimental: Fig. 6 Transcriptomic changes in human kidney proximal tubular HK-2 cells following treatments with polymyxin B (PMB), colistin (COL), F287, F319, and F365. a Numbers of differentially expressed genes. Distinctive intersections are color-coded. b Cell viability difference (two-tailed Student’s t-test, n = 4 biologically independent cells, Benjamini–Hochberg adjusted P-values) between wild-type HK-2 and KCNJ16 knockout (KO) cells following 24 h treatment with lipopeptides. n.s., not significant; ^*adjusted P < 0.05, ^**adjusted P < 0.01, ^***adjusted P < 0.001. Data are shown as mean ± s.d. and individual data points. c Extracted transcriptional regulatory network from Signor database with 1-step neighbor constraints (enlarged for detail). Source data are provided as a Source Data file.

A. baumannii AB5075 [2] = assay: Transcriptomic analysis (RNA-Seq) of bacteria; type: cell-based, Acinetobacter baumannii; settings: for logFC (Differential gene expression for all genes), Geneid ABUW_RS00005 / logFC (Differential gene expression for all genes), Geneid ABUW_RS00020 / logFC (Fold change), gene ABUW_RS00010 / logFC (Fold change), gene ABUW_RS00030 / logFC (Fold change), gene ABUW_RS00035 / logFC (Fold change), gene recF (ABUW_RS00015) / 4h_1h logFC (Differential gene expression for all genes), Geneid ABUW_RS00005 / 4h_1h logFC (Differential gene expression for all genes), Geneid ABUW_RS00010 / 4h_1h logFC (Differential gene expression for all genes), Geneid ABUW_RS00015 / 4h_1h logFC (Differential gene expression for all genes), Geneid ABUW_RS00020: RNA-Seq A. baumannii AB5075; for log2FC, gene ABUW_RS01945 (acyl-CoA thioesterase II) / log2FC, gene ABUW_RS02545 (acyl-CoA thioesterase) / log2FC, gene ABUW_RS05045 (acyl-CoA thioesterase) / log2FC, gene ABUW_RS17575 (acyl-CoA thioesterase): pathway Fatty Acid and Lipid Degradation; for 4h_1h logFC (Differential gene expression for all genes), Geneid ABUW_RS00005 / 4h_1h logFC (Differential gene expression for all genes), Geneid ABUW_RS00010 / 4h_1h logFC (Differential gene expression for all genes), Geneid ABUW_RS00015 / 4h_1h logFC (Differential gene expression for all genes), Geneid ABUW_RS00020: 4h vs 1h
Experimental: Mid-log phase A. baumannii AB5075 (~10^8 CFU/mL) in CaMHB was treated with colistin (2 and 8 μg/mL), F287, F319 or F365 (equimolar concentration to colistin) for 1 and 4 h. Total RNA was extracted using TRIzol Reagent (Invitrogen, USA) and RNeasy Mini Kit (Qiagen, Germany). Quality check of RNA samples was conducted with NanoDrop (Thermo Fisher Scientific, USA) and Agilent 2100 Bioanalyzer (Agilent Technologies, USA) for sequencing (150 bp paired-end) at Genewiz (Shanghai, China). Raw reads were aligned to A. baumannii AB5075 genome (GCF_000963815, https://www.ncbi.nlm.nih.gov/assembly/GCF_000963815.1/) using subread-aligner (subread 2.0.1) and summarized by featureCounts (subread 2.0.1). Principal component analysis (PCA) was conducted with mixOmics 6.14.1 in R. Differentially expressed genes were determined using limma 3.46.0 with a combination of fold change ≥ 2 and false discovery rate (FDR, by Benjamini–Hochberg algorithm) adjusted P-value ≤ 0.05 (n = 3). Enrichment analysis of gene differential expression in AB5075 was conducted using BioCyc (A. baumannii AB5075, version 25.5). UpSetR 1.4.0, ComplexHeatmap 2.6.2 and circlize 0.4.13 were used for data visualization. Raw data were deposited in Short Reads Archive (SRA) database under accession numbers SRR15235669-SRR15235725.

Colistin [reference compound]
regrowth observed from day (A. baumannii AB5075 [1]): 4 days
OD600 (A. baumannii AB5075 [1]; time 0 h, passage 0, replicates rep1-rep4, raw OD600 (blank OD600 0.125333)): 0.152 and 0.143 and 0.147 and 0.146
OD600 (A. baumannii AB5075 [1]; time 12 h, passage 1, replicates rep1-rep4, raw OD600 (blank OD600 0.114667)): 0.136 and 0.134 and 0.13
OD600 (A. baumannii AB5075 [1]; time 24 h, passage 2, replicates rep1-rep4, raw OD600 (blank OD600 0.0956667)): 0.095 and 0.089 and 0.087 and 0.091
OD600 (A. baumannii AB5075 [1]; time 36 h, passage 3, replicates rep1-rep4, raw OD600 (blank OD600 0.088)): 0.088 and 0.087 and 0.085 and 0.091
OD600 (A. baumannii AB5075 [1]; time 48 h, passage 4, replicates rep1-rep4, raw OD600 (blank OD600 0.104667)): 0.095 and 0.093
OD600 (A. baumannii AB5075 [1]; time 60 h, passage 5, replicates rep1-rep4, raw OD600 (blank OD600 0.122333)): 0.125 and 0.117 and 0.115 and 0.107
OD600 (A. baumannii AB5075 [1]; time 72 h, passage 6, replicates rep1-rep4, raw OD600 (blank OD600 0.095)): 0.14 and 0.126 and 0.15
OD600 (A. baumannii AB5075 [1]; time 84 h, passage 7, replicates rep1-rep4, raw OD600 (blank OD600 0.091)): 0.196 and 0.173 and 0.191 and 0.238
OD600 (A. baumannii AB5075 [1]; time 96 h, passage 8, replicates rep1-rep4, raw OD600 (blank OD600 0.0953333)): 0.224 and 0.238 and 0.275 and 0.393
OD600 (A. baumannii AB5075 [1]; time 108 h, passage 9, replicates rep1-rep4, raw OD600 (blank OD600 0.100667)): 0.309 and 0.315 and 0.31 and 0.392
OD600 (A. baumannii AB5075 [1]; time 120 h, passage 10, replicates rep1-rep4, raw OD600 (blank OD600 0.0983333)): 0.387 and 0.364 and 0.444 and 0.49
OD600 (A. baumannii AB5075 [1]; time 132 h, passage 11, replicates rep1-rep4, raw OD600 (blank OD600 0.0843333)): 0.344 and 0.355 and 0.395 and 0.414
OD600 (A. baumannii AB5075 [1]; time 144 h, passage 12, replicates rep1-rep4, raw OD600 (blank OD600 0.091)): 0.477 and 0.464 and 0.465 and 0.416
OD600 (A. baumannii AB5075 [1]; time 156 h, passage 13, replicates rep1-rep4, raw OD600 (blank OD600 0.129)): 0.339 and 0.382 and 0.394
OD600 (A. baumannii AB5075 [1]; time 168 h, passage 14, replicates rep1-rep4, raw OD600 (blank OD600 0.101)): 0.344 and 0.379 and 0.374 and 0.394
time to emergence of resistance (A. baumannii AB5075 [1]; 4× MIC, 7-day passaging): ≤ 3 days
growth over 7 days (A. baumannii AB5075 [1]; 32× MIC): No growth
Cell viability, WT, Rep1 (wild-type HK-2 cells): 52.6875
Cell viability, WT, Rep2 (wild-type HK-2 cells): 59.5382
Cell viability, WT, Rep4 (wild-type HK-2 cells): 47.0908
logFC (Differential gene expression for all genes), Geneid ABUW_RS00005 (A. baumannii AB5075 [2]; H vs Cont, 1h): -0.1415
logFC (Differential gene expression for all genes), Geneid ABUW_RS00020 (A. baumannii AB5075 [2]; H vs Cont, 1h): 0.3148
logFC (Fold change), gene ABUW_RS00010 (A. baumannii AB5075 [2]; H vs Cont, 1h): 0.4448
logFC (Fold change), gene ABUW_RS00030 (A. baumannii AB5075 [2]; H vs Cont, 1h): -0.4924
logFC (Fold change), gene ABUW_RS00035 (A. baumannii AB5075 [2]; H vs Cont, 1h): 1.135
logFC (Fold change), gene recF (ABUW_RS00015) (A. baumannii AB5075 [2]; H vs Cont, 1h): -0.2294
log2FC, gene ABUW_RS01945 (acyl-CoA thioesterase II) (A. baumannii AB5075 [2]; H vs Cont, 1h): 0.3504
log2FC, gene ABUW_RS02545 (acyl-CoA thioesterase) (A. baumannii AB5075 [2]; H vs Cont, 1h): 1.4185
log2FC, gene ABUW_RS05045 (acyl-CoA thioesterase) (A. baumannii AB5075 [2]; H vs Cont, 1h): 0.5564
log2FC, gene ABUW_RS17575 (acyl-CoA thioesterase) (A. baumannii AB5075 [2]; H vs Cont, 1h): -1.353
logFC (Differential gene expression for all genes), Geneid ABUW_RS00005 (A. baumannii AB5075 [2]; H vs Cont, 4h): -0.09217
logFC (Differential gene expression for all genes), Geneid ABUW_RS00020 (A. baumannii AB5075 [2]; H vs Cont, 4h): -0.1513
logFC (Fold change), gene ABUW_RS00010 (A. baumannii AB5075 [2]; H vs Cont, 4h): 1.069
logFC (Fold change), gene ABUW_RS00030 (A. baumannii AB5075 [2]; H vs Cont, 4h): -0.5349
logFC (Fold change), gene ABUW_RS00035 (A. baumannii AB5075 [2]; H vs Cont, 4h): 1.256
logFC (Fold change), gene recF (ABUW_RS00015) (A. baumannii AB5075 [2]; H vs Cont, 4h): -1.096
log2FC, gene ABUW_RS01945 (acyl-CoA thioesterase II) (A. baumannii AB5075 [2]; H vs Cont, 4h): -0.7138
log2FC, gene ABUW_RS02545 (acyl-CoA thioesterase) (A. baumannii AB5075 [2]; H vs Cont, 4h): 0.6589
log2FC, gene ABUW_RS05045 (acyl-CoA thioesterase) (A. baumannii AB5075 [2]; H vs Cont, 4h): 0.2411
log2FC, gene ABUW_RS17575 (acyl-CoA thioesterase) (A. baumannii AB5075 [2]; H vs Cont, 4h): -2.464
4h_1h logFC (Differential gene expression for all genes), Geneid ABUW_RS00005 (A. baumannii AB5075 [2]; H): -0.3521
4h_1h logFC (Differential gene expression for all genes), Geneid ABUW_RS00010 (A. baumannii AB5075 [2]; H): 0.7488
4h_1h logFC (Differential gene expression for all genes), Geneid ABUW_RS00015 (A. baumannii AB5075 [2]; H): -1.211
4h_1h logFC (Differential gene expression for all genes), Geneid ABUW_RS00020 (A. baumannii AB5075 [2]; H): 0.2283
logFC (Differential gene expression for all genes), Geneid ABUW_RS00005 (A. baumannii AB5075 [2]; L vs Cont, 1h): -0.03172
logFC (Differential gene expression for all genes), Geneid ABUW_RS00020 (A. baumannii AB5075 [2]; L vs Cont, 1h): 0.1157
logFC (Fold change), gene ABUW_RS00010 (A. baumannii AB5075 [2]; L vs Cont, 1h): -0.05024
logFC (Fold change), gene ABUW_RS00030 (A. baumannii AB5075 [2]; L vs Cont, 1h): -0.1351
logFC (Fold change), gene ABUW_RS00035 (A. baumannii AB5075 [2]; L vs Cont, 1h): -0.09136
logFC (Fold change), gene recF (ABUW_RS00015) (A. baumannii AB5075 [2]; L vs Cont, 1h): -0.09027
log2FC, gene ABUW_RS01945 (acyl-CoA thioesterase II) (A. baumannii AB5075 [2]; L vs Cont, 1h): 0.4895
log2FC, gene ABUW_RS02545 (acyl-CoA thioesterase) (A. baumannii AB5075 [2]; L vs Cont, 1h): 0.2839
log2FC, gene ABUW_RS05045 (acyl-CoA thioesterase) (A. baumannii AB5075 [2]; L vs Cont, 1h): -0.5862
log2FC, gene ABUW_RS17575 (acyl-CoA thioesterase) (A. baumannii AB5075 [2]; L vs Cont, 1h): 0.3237
logFC (Differential gene expression for all genes), Geneid ABUW_RS00005 (A. baumannii AB5075 [2]; L vs Cont, 4h): -0.01117
logFC (Differential gene expression for all genes), Geneid ABUW_RS00020 (A. baumannii AB5075 [2]; L vs Cont, 4h): -0.1061
logFC (Fold change), gene ABUW_RS00010 (A. baumannii AB5075 [2]; L vs Cont, 4h): 0.1057
logFC (Fold change), gene ABUW_RS00030 (A. baumannii AB5075 [2]; L vs Cont, 4h): -0.4634
logFC (Fold change), gene ABUW_RS00035 (A. baumannii AB5075 [2]; L vs Cont, 4h): 0.03384
logFC (Fold change), gene recF (ABUW_RS00015) (A. baumannii AB5075 [2]; L vs Cont, 4h): -0.08717
log2FC, gene ABUW_RS01945 (acyl-CoA thioesterase II) (A. baumannii AB5075 [2]; L vs Cont, 4h): 0.543
log2FC, gene ABUW_RS02545 (acyl-CoA thioesterase) (A. baumannii AB5075 [2]; L vs Cont, 4h): -0.1794
log2FC, gene ABUW_RS05045 (acyl-CoA thioesterase) (A. baumannii AB5075 [2]; L vs Cont, 4h): 0.3247
log2FC, gene ABUW_RS17575 (acyl-CoA thioesterase) (A. baumannii AB5075 [2]; L vs Cont, 4h): -0.8383
4h_1h logFC (Differential gene expression for all genes), Geneid ABUW_RS00005 (A. baumannii AB5075 [2]; L): -0.3028
4h_1h logFC (Differential gene expression for all genes), Geneid ABUW_RS00010 (A. baumannii AB5075 [2]; L): -0.2642
4h_1h logFC (Differential gene expression for all genes), Geneid ABUW_RS00015 (A. baumannii AB5075 [2]; L): -0.2929
4h_1h logFC (Differential gene expression for all genes), Geneid ABUW_RS00020 (A. baumannii AB5075 [2]; L): 0.3892
